Tests used:
Format in all cases: toxicity, cell-based
Fibroblast = experiment: Incucyte cell viability with human fibroblast; conditions: 10 µM, compound concentration 10 uM
HEK-293T = experiment: Incucyte cell viability with HEK293T; conditions: human, 10 µM, compound concentration 10 uM
U2OS = experiment: Incucyte cell viability with U2OS; conditions: human, 10 µM, compound concentration 10 uM
Further: unitless GR value; below 1 slowed growth and below 0 cell loss.

| SMILES | Growth Rate (Fibroblast; 0 h, replicate number 1) | Growth Rate (Fibroblast; 12 h, replicate number 2) | Growth Rate (Fibroblast; 18 h, replicate number 1) | Growth Rate (Fibroblast; 18 h, replicate number 2) | Growth Rate (Fibroblast; 24 h, replicate number 1) | Growth Rate (Fibroblast; 24 h, replicate number 2) | Growth Rate (HEK-293T; 6 h, replicate number 1) | Growth Rate (HEK-293T; 6 h, replicate number 2) | Growth Rate (HEK-293T; 12 h, replicate number 2) | Growth Rate (HEK-293T; 18 h, replicate number 1) | Growth Rate (HEK-293T; 18 h, replicate number 2) | Growth Rate (U2OS; 6 h, replicate number 1) | Growth Rate (U2OS; 6 h, replicate number 2) | Growth Rate (U2OS; 12 h, replicate number 1) | Growth Rate (U2OS; 12 h, replicate number 2) | Growth Rate (U2OS; 18 h, replicate number 1) | Growth Rate (U2OS; 18 h, replicate number 2) | Growth Rate (U2OS; 24 h, replicate number 1) | Growth Rate (U2OS; 24 h, replicate number 2) | Growth Rate (Fibroblast; 6 h, replicate number 1) | other results |
| --- | --- | --- | --- | --- | --- | --- | --- | --- | --- | --- | --- | --- | --- | --- | --- | --- | --- | --- | --- | --- | --- |
| CN1CCN(c2ccc(C(=O)Nc3n[nH]c4ccc(Cc5cc(F)cc(F)c5)cc34)c(NC3CCOCC3)c2)CC1 [ENTRECTINIB] | -0.42 | -0.97 | -0.92 | -0.89 | -0.82 | -0.77 | -0.98 | -0.99 | -0.8 | -0.67 | -0.58 | -0.92 | -0.57 | -0.62 | -0.45 | -0.64 | -0.56 | -0.66 | -0.6 |  | Growth Rate (Fibroblast; 6 h, replicate number 2): -1; Growth Rate (HEK-293T; 12 h, replicate number 1): -0.89; Growth Rate (HEK-293T; 24 h, replicate number 1): -0.54; Growth Rate (HEK-293T; 24 h, replicate number 2): -0.42; Growth Rate (U2OS; 0 h, replicate number 2): -1 |
| CN(C)CCC[C@@]1(c2ccc(F)cc2)OCc2cc(C#N)ccc21 [ESCITALOPRAM] | -1 |  | 0.69 | 0.85 | 0.84 | 0.74 |  |  | 0.97 | 0.56 | 0.59 | 0.62 |  | 1 |  |  |  | 0.9 |  | 0.67 | Growth Rate (HEK-293T; 0 h, replicate number 1): -0.16; Growth Rate (HEK-293T; 0 h, replicate number 2): 0.57; Growth Rate (HEK-293T; 12 h, replicate number 1): 0.84; Growth Rate (HEK-293T; 24 h, replicate number 1): 0.6; Growth Rate (U2OS; 0 h, replicate number 1): 0.18 |
| CCOC(=O)c1cncn1[C@H](C)c1ccccc1 [ETOMIDATE] | 0.28 |  | 0.21 |  | -0.16 |  | 0.68 |  |  |  |  |  | 0.83 | 0.97 |  | 0.9 | 0.87 | 0.98 |  |  | Growth Rate (Fibroblast; 0 h, replicate number 2): 0.93; Growth Rate (U2OS; 0 h, replicate number 1): 0.35; Growth Rate (U2OS; 0 h, replicate number 2): -0.28 |
| C[C@H]1CN(C2COC2)CCN1c1ccc(Nc2cc(-c3ccnc(N4CCn5c(cc6c5CC(C)(C)C6)C4=O)c3CO)cn(C)c2=O)nc1 [FENEBRUTINIB] | -1 | 0.46 |  | 0.94 |  |  | 0.81 | 0.76 |  |  |  | 0.53 |  | 0.69 | 0.99 |  | 0.98 | 0.81 | 1 | 0.44 | Growth Rate (Fibroblast; 0 h, replicate number 2): -0.77 |
| COCCNc1cc(NC(=O)N2CCCc3cc(CN4CCN(C)CC4=O)c(C=O)nc32)ncc1C#N [FGF401] |  |  | 0.24 |  | 0.74 |  | 0.68 | 0.95 | 0.82 | 0.87 | 0.98 | 0.86 |  | 0.86 |  | 0.93 |  | 0.98 |  | 0.08 | Growth Rate (Fibroblast; 0 h, replicate number 2): 0.95; Growth Rate (Fibroblast; 12 h, replicate number 1): -1; Growth Rate (HEK-293T; 0 h, replicate number 2): 0.45; Growth Rate (U2OS; 0 h, replicate number 1): -0.62 |
| COc1ccc(Cl)cc1[C@]1(F)C(=O)Nc2cc(C(F)(F)F)ccc21 [FLINDOKALNER] |  | 0.2 |  | 0.41 |  | 0.58 | 0.73 | 0.03 | 0.38 | 0.42 | 0.4 |  | 0.48 | 0.57 | 0.76 | 0.79 | 0.88 | 0.83 | 0.95 | -0.6 | Growth Rate (Fibroblast; 6 h, replicate number 2): -1; Growth Rate (Fibroblast; 12 h, replicate number 1): -1; Growth Rate (HEK-293T; 0 h, replicate number 1): 0.73; Growth Rate (HEK-293T; 12 h, replicate number 1): 0.58; Growth Rate (HEK-293T; 24 h, replicate number 1): 0.44; Growth Rate (HEK-293T; 24 h, replicate number 2): 0.47 |
| O=C(O)CCC/C=C\C[C@@H]1[C@@H](/C=C/[C@@H](O)COc2cccc(C(F)(F)F)c2)[C@H](O)C[C@@H]1O [FLUPROSTENOL] |  | 0.09 | 0.89 | 0.18 | 0.8 | 0.44 |  |  |  |  |  | 0.86 | 0.95 |  | 0.91 |  | 0.9 |  | 0.91 | 0.15 | Growth Rate (Fibroblast; 6 h, replicate number 2): -0.58; Growth Rate (Fibroblast; 12 h, replicate number 1): 0.5; Growth Rate (HEK-293T; 0 h, replicate number 1): -0.11; Growth Rate (HEK-293T; 0 h, replicate number 2): 0.68; Growth Rate (U2OS; 0 h, replicate number 1): 0.61 |
